Reference: PubChem BioAssay (NCI)
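These data come from cells grown in 96-well plates and exposed to compound for 48 hours at five concentrations. At the GI50, growth is halved. At the TGI there is no net growth.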

Experiments:
Test in all cases: NCI tumour cell line growth inhibition, 48 h
786-0 renal = test system: 786-0 renal
A498 renal = test system: A498 renal
A549 NSCLC = test system: A549 NSCLC
ACHN renal = test system: ACHN renal
BT-549 breast = test system: BT-549 breast
CAKI-1 renal = test system: CAKI-1 renal
CCRF-CEM leukemia = test system: CCRF-CEM leukemia
COLO 205 colon = test system: COLO 205 colon
DU-145 prostate = test system: DU-145 prostate
EKVX NSCLC = test system: EKVX NSCLC
HCC-2998 colon = test system: HCC-2998 colon
HCT-116 colon = test system: HCT-116 colon
HCT-15 colon = test system: HCT-15 colon
HL-60(TB) leukemia = test system: HL-60(TB) leukemia
HOP-62 NSCLC = test system: HOP-62 NSCLC
HOP-92 NSCLC = test system: HOP-92 NSCLC
HS 578T breast = test system: HS 578T breast
HT29 colon = test system: HT29 colon
IGROV1 ovarian = test system: IGROV1 ovarian
K-562 leukemia = test system: K-562 leukemia
KM12 colon = test system: KM12 colon
LOX IMVI melanoma = test system: LOX IMVI melanoma
M14 melanoma = test system: M14 melanoma
MALME-3M melanoma = test system: MALME-3M melanoma
MCF7 breast = test system: MCF7 breast
MDA-MB-231 breast = test system: MDA-MB-231 breast
MDA-MB-435 = test system: MDA-MB-435
MDA-MB-468 breast = test system: MDA-MB-468 breast
MOLT-4 leukemia = test system: MOLT-4 leukemia
NCI-H226 lung = test system: NCI-H226 lung
NCI-H23 lung = test system: NCI-H23 lung
NCI-H460 lung = test system: NCI-H460 lung
NCI-H522 lung = test system: NCI-H522 lung
NCI/ADR-RES ovarian = test system: NCI/ADR-RES ovarian
OVCAR-3 ovarian = test system: OVCAR-3 ovarian
OVCAR-4 ovarian = test system: OVCAR-4 ovarian
OVCAR-5 ovarian = test system: OVCAR-5 ovarian
OVCAR-8 ovarian = test system: OVCAR-8 ovarian
PC-3 prostate = test system: PC-3 prostate
RPMI-8226 leukemia = test system: RPMI-8226 leukemia
RXF 393 renal = test system: RXF 393 renal
SF-268 CNS = test system: SF-268 CNS
SF-295 CNS = test system: SF-295 CNS
SF-539 CNS = test system: SF-539 CNS
SK-MEL-2 melanoma = test system: SK-MEL-2 melanoma
SK-MEL-28 melanoma = test system: SK-MEL-28 melanoma
SK-MEL-5 melanoma = test system: SK-MEL-5 melanoma
SK-OV-3 ovarian = test system: SK-OV-3 ovarian
SN12C renal = test system: SN12C renal
SNB-19 CNS = test system: SNB-19 CNS
SNB-75 CNS = test system: SNB-75 CNS
SR leukemia = test system: SR leukemia
SW-620 colon = test system: SW-620 colon
TK-10 renal = test system: TK-10 renal
U251 CNS = test system: U251 CNS
UACC-257 melanoma = test system: UACC-257 melanoma
UACC-62 melanoma = test system: UACC-62 melanoma
UO-31 renal = test system: UO-31 renal

Cn1cc(-c2nc(N)nnc2-c2c[nH]c3ccc(Br)cc23)c2cc(Br)cnc21
GI50 (786-0 renal): 422 nM | TGI (786-0 renal): 16100 nM | GI50 (A498 renal): 662 nM | TGI (A498 renal): 5320 nM | GI50 (A549 NSCLC): 455 nM | TGI (A549 NSCLC): 29100 nM | GI50 (ACHN renal): 748 nM | TGI (ACHN renal): 13200 nM | GI50 (BT-549 breast): 227 nM | TGI (BT-549 breast): 7720 nM | GI50 (CAKI-1 renal): 184 nM | TGI (CAKI-1 renal): 18200 nM | GI50 (CCRF-CEM leukemia): 279 nM | TGI (CCRF-CEM leukemia): > 100000 nM | GI50 (COLO 205 colon): 248 nM | TGI (COLO 205 colon): 762 nM | GI50 (DU-145 prostate): 352 nM | TGI (DU-145 prostate): 12800 nM | GI50 (EKVX NSCLC): 881 nM | TGI (EKVX NSCLC): 23700 nM | GI50 (HCC-2998 colon): 379 nM | TGI (HCC-2998 colon): 11400 nM | GI50 (HCT-116 colon): 141 nM | TGI (HCT-116 colon): 3360 nM | GI50 (HCT-15 colon): 177 nM | TGI (HCT-15 colon): 11000 nM | GI50 (HL-60(TB) leukemia): 144 nM | TGI (HL-60(TB) leukemia): 824 nM | GI50 (HOP-62 NSCLC): 420 nM | TGI (HOP-62 NSCLC): 19500 nM | GI50 (HOP-92 NSCLC): 1270 nM | TGI (HOP-92 NSCLC): 11400 nM | GI50 (HS 578T breast): 285 nM | TGI (HS 578T breast): 38000 nM | GI50 (HT29 colon): 269 nM | TGI (HT29 colon): 1040 nM | GI50 (IGROV1 ovarian): 398 nM | TGI (IGROV1 ovarian): 18800 nM | GI50 (K-562 leukemia): 49 nM | TGI (K-562 leukemia): > 35600 nM | GI50 (KM12 colon): 146 nM | TGI (KM12 colon): 11300 nM | GI50 (LOX IMVI melanoma): 299 nM | TGI (LOX IMVI melanoma): 15800 nM | GI50 (M14 melanoma): 148 nM | TGI (M14 melanoma): 13900 nM | GI50 (MALME-3M melanoma): 135 nM | TGI (MALME-3M melanoma): 20300 nM | GI50 (MCF7 breast): 58.3 nM | TGI (MCF7 breast): 15900 nM | GI50 (MDA-MB-231 breast): 442 nM | TGI (MDA-MB-231 breast): 11700 nM | GI50 (MDA-MB-435): 32 nM | TGI (MDA-MB-435): 120 nM | GI50 (MDA-MB-468 breast): 69 nM | TGI (MDA-MB-468 breast): 1030 nM | GI50 (MOLT-4 leukemia): 341 nM | TGI (MOLT-4 leukemia): 20300 nM | GI50 (NCI-H226 lung): 582 nM | TGI (NCI-H226 lung): 8660 nM | GI50 (NCI-H23 lung): 373 nM | TGI (NCI-H23 lung): 14900 nM | GI50 (NCI-H460 lung): 349 nM | TGI (NCI-H460 lung): 11200 nM | GI50 (NCI-H522 lung): 21.2 nM | TGI (NCI-H522 lung): 61.9 nM | GI50 (NCI/ADR-RES ovarian): 432 nM | TGI (NCI/ADR-RES ovarian): 7080 nM | GI50 (OVCAR-3 ovarian): 64.9 nM | TGI (OVCAR-3 ovarian): 2510 nM | GI50 (OVCAR-4 ovarian): 978 nM | TGI (OVCAR-4 ovarian): 20200 nM | GI50 (OVCAR-5 ovarian): 422 nM | TGI (OVCAR-5 ovarian): 15600 nM | GI50 (OVCAR-8 ovarian): 450 nM | TGI (OVCAR-8 ovarian): 9020 nM | GI50 (PC-3 prostate): 130 nM | TGI (PC-3 prostate): 30100 nM | GI50 (RPMI-8226 leukemia): 422 nM | TGI (RPMI-8226 leukemia): > 100000 nM | GI50 (RXF 393 renal): 167 nM | TGI (RXF 393 renal): 3840 nM | GI50 (SF-268 CNS): 1620 nM | TGI (SF-268 CNS): 22000 nM | GI50 (SF-295 CNS): 75 nM | TGI (SF-295 CNS): 12800 nM | GI50 (SF-539 CNS): 154 nM | TGI (SF-539 CNS): 532 nM | GI50 (SK-MEL-2 melanoma): 194 nM | TGI (SK-MEL-2 melanoma): 14800 nM | GI50 (SK-MEL-28 melanoma): 324 nM | TGI (SK-MEL-28 melanoma): 17800 nM | GI50 (SK-MEL-5 melanoma): 114 nM | TGI (SK-MEL-5 melanoma): 3910 nM | GI50 (SK-OV-3 ovarian): 432 nM | TGI (SK-OV-3 ovarian): 20200 nM | GI50 (SN12C renal): 423 nM | TGI (SN12C renal): 14500 nM | GI50 (SNB-19 CNS): 454 nM | TGI (SNB-19 CNS): 16500 nM | GI50 (SNB-75 CNS): 192 nM | TGI (SNB-75 CNS): 2910 nM | GI50 (SR leukemia): 43 nM | TGI (SR leukemia): > 52900 nM | GI50 (SW-620 colon): 217 nM | TGI (SW-620 colon): 18400 nM | GI50 (TK-10 renal): 12600 nM | TGI (TK-10 renal): 50400 nM | GI50 (U251 CNS): 349 nM | TGI (U251 CNS): 13300 nM | GI50 (UACC-257 melanoma): 11000 nM | TGI (UACC-257 melanoma): 23500 nM | GI50 (UACC-62 melanoma): 47.3 nM | TGI (UACC-62 melanoma): 16400 nM | GI50 (UO-31 renal): 349 nM | TGI (UO-31 renal): 16500 nM
